Measurements as given in patent publication US20220226338A1, “Methods of Treating Cancer Using CHK1 Inhibitors” (Sierra Oncology, Inc., priority 2019, published 2022).
Like-named read-outs stand apart in the source and are kept apart here.

Legend:
[1] = SRA737 plasma and tumor concentrations in HT29 xenograft model; assay type: in vivo, mice; conditions: mouse, plasma, oral, read-out: plasma concentration with anti-tumor activity in preclinical efficacy models
Protocol: The effect of SRA737 on Gemcitabine induced CHK1 S296 autophosphorylation was assessed as described in Walton et al. (Oncotarget. 2016 January 19; 7(3): 2329-2342), herein incorporated by reference for all it teaches. Briefly, mice bearing HT29 tumor xenografts were administered (i) vehicle control or (ii) gemcitabine (100 mg/kg in saline, IV) or (iii) a combination of SRA737 (12.5, 25, 50 or 100 mg/kg in DTPW, oral) and gemcitabine (100 mg/kg) with SRA737 administered 24 hours following gemcitabine administration (n=3 per time point per treatment). […] Exposure in the tumor was greater than 10-fold higher than in plasma. The circulating plasma concentration at this 24-hour timepoint corresponded to a free drug concentration of approximately 6 nM (2 ng/mL) based on plasma protein binding in mice of 94%.

Single dose PK, mouse = assay type: in vivo; conditions: Mouse oral 10 mg/kg single dose
Description: Several studies have been conducted to evaluate the PK properties of SRA737, such as the absorption (in vitro permeability assays and in vivo PK following IV and oral administration), distribution (in vivo tissue distribution and in vitro plasma protein binding) and metabolism (in vitro hepatocyte and CYP inhibition and induction studies) of SRA737.
(§1) The PK of SRA737 have been determined in the mouse, rat, dog and monkey following oral and IV administration (Table 3). […] An acceptable terminal elimination t1/2 was also observed in each species. […] The plasma protein binding of SRA737 at 1 and 10 μM was examined in mouse, minipig, monkey and human plasma using ultracentrifugation and in dog plasma (10 μM) using rapid equilibrium dialysis.

plasma protein [2] = assay: Plasma protein binding, ultracentrifugation, minipig plasma; assay type: in vitro ADME
Protocol: as §1

plasma protein [3] = assay: Plasma protein binding, ultracentrifugation, human plasma; assay type: in vitro ADME
Protocol: as §1

[4] = Parallel artificial membrane permeability assay (PAMPA); assay type: in vitro ADME
Protocol: The membrane permeability of SRA737 was assessed in the parallel artificial membrane permeability assay (PAMPA) and Caco-2 assays. Permeability in the PAMPA assay was classified as low.

[5] = system: cryopreserved hepatocytes; assay: Stability and metabolites in cryopreserved human hepatocytes; assay type: in vitro ADME
Protocol: (§2) The formation of SRA737-related metabolites was determined in cryopreserved hepatocytes from human, mouse, rat, dog, minipig and monkey samples after incubation with SRA737 at a nominal concentration of 10 μM for up to 4 hours. […] In the human hepatocyte preparation, approximately 67% of the parent remained after 4 hours of incubation compared to 75% and 7% in the rat and minipig preparations, respectively. Eight human SRA737 metabolites were observed. All SRA737 metabolites formed by human hepatocytes were also formed by monkey hepatocytes. Six metabolites were present at equal or greater abundance in the monkey.

[6] = system: cryopreserved hepatocytes; assay: Stability in cryopreserved minipig hepatocytes; assay type: in vitro ADME; conditions: 10 μM, after 4 hours of incubation
Protocol: as §2

[7] = Excretion in urine and feces, mice; assay type: in vivo; conditions: 24-hour collection
Protocol: The excretion of SRA737 has been studied in mice and rats administered SRA737 at either 5 mg/kg IV or 10 mg/kg orally. Urine and feces were collected for a 24-hour period after dosing. In mice, renal excretion of intact SRA737 was consistently low (less than 10% of dose) after both oral and IV administration. Following IV administration of SRA737, less than 8% of the dose was recovered as intact drug in the feces while after oral administration this figure was less than 3%. Excretion of intact SRA737 was lower in the rat than in the mouse with <1% of dose excreted renally over 24 hours and less than 1.5% of dose excreted into the feces over 24 hours.

CYP1A2 = assay: CYP induction in vitro; assay type: in vitro ADME; conditions: positive control omeprazole, minimal, concentration dependent
[8] = mouse, in vivo
Protocol: Reference source not found.6.
These findings were reversible on cessation of drug administration.
The MTD was 75 mg/kg/day (225 mg/m^2/day) in the mouse and the HNSTD was […] (350 mg/m^2/day) in the minipig.

[9] = SRA737 monotherapy clinical study (SRA737-01), pharmacokinetics; assay type: in vivo, human
Protocol: A Phase 1 clinical trial was conducted in ‘all comers,’ i.e. no genetic selection was performed, to establish safety, tolerability and pharmacokinetics (“Dose Escalation Phase”). Cohorts consisting initially of a single subject received escalating doses of SRA737, starting in Cohort 1 with 20 mg/day administered orally on a continuous daily dosing schedule in 28 day cycles. the dose was escalated until the maximum tolerated dose (MTD) was identified.
Cmin was calculated at 1000 mg QD (411 ng/mL) and exceeded that determined in preclinical models to be effective. Doses ≥300 mg QD also exceeded the preclinical models to be effective.
A Dose Escalation phase employed an accelerated titration design starting at 20 mg SRA737, administered QD orally in 28-day cycles. Incremental dose escalations in single-subject cohorts were followed by a rolling-6 design once SRA737-related ≥Grade 2 toxicity was observed during Cycle 1.
The plasma pharmacokinetics of SRA737 were reproducible and generally dose concordant. […] All doses ≥300 mg QD also exceeded this threshold level.

Which concentration at 24 h ([1]; equivalent of 100 nM) does the source give for `N#Cc1cnc(Nc2cc(NCC3CNCCO3)c(C(F)(F)F)cn2)cn1` (stereo not shown) [SRA737, 5-[[4-[[morpholin-2-yl]methylamino]-5-(trifluoromethyl)-2-pyridyl]amino]pyrazine-2-carbonitrile] here?
Its concentration at 24 h is about 37.9 ng/mL.

What about the concentration at 24 h ([1]; mice, sustained for 24 hours, PK/PD benchmark) of the same compound?
Its concentration at 24 h is 100 nM.

What about the Foral (Single dose PK, mouse) of the same compound?
Its Foral is 105%.

What about the “Percentage Bound” value (plasma protein [2]; 1 μM) of the same compound?
Its value is 85.2%.

And the “Percentage Free” value (plasma protein [2]; 1 μM)?
The value was 14.9%.

What about the “Percentage Bound” value (plasma protein [2]; 10 μM) of the same compound?
The value was 75.5%.

What about the “Percentage Free” value (plasma protein [2]; 10 μM) of the same compound?
Its value is 24.5%.

What about the “Percentage Bound” value (plasma protein [3]; 1 μM) of the same compound?
The value was 87.7%.

What about the “Percentage Free” value (plasma protein [3]; 1 μM) of the same compound?
The value was 12.4%.

What about the “Percentage Bound” value (plasma protein [3]; 10 μM) of the same compound?
The value was 87.2%.

And the “Percentage Free” value (plasma protein [3]; 10 μM)?
The value was 12.8%.

And the “permeability in the PAMPA assay” value [4]?
The value was “low”.

What about the “number of human SRA737 metabolites observed” value [5] of the same compound?
Its value is “Eight”.

What about the parent remaining ([5]; 10 μM, after 4 hours of incubation) of the same compound?
The parent remaining was “approximately 67%”.

And the parent remaining [6]?
Its parent remaining is 7%.

And the “renal excretion of intact SRA737” value ([7]; 5 mg/kg IV or 10 mg/kg oral)?
Its value is “less than 10 % of dose”.

What about the “intact drug recovered in the feces” value ([7]; IV administration) of the same compound?
Its value is “less than 8 % of dose”.

And the “intact drug recovered in the feces” value ([7]; oral administration)?
Its value is “less than 3 % of dose”.

And the “induction of CYP1A2” value (CYP1A2)?
The value was under 10 % positive control.

And the “changes in reproductive organs” value [8]?
The value was “changes in reproductive organs, particularly the testes, were also observed”.

What about the dose-dependent toxicological findings [8] of the same compound?
The dose-dependent toxicological findings was “bone marrow toxicity”.

What about the CL/F ([9]; human, in vivo, 160 mg) of the same compound?
The CL/F was 70.0 L/h.

And the Vd/F ([9]; human, in vivo, 160 mg)?
The Vd/F was 1390 L.

What about the CL/F ([9]; human, in vivo, 300 mg) of the same compound?
Its CL/F is 81.9 L/h.

And the Vd/F ([9]; human, in vivo, 300 mg)?
The Vd/F was 1020 L.

What about the t1/2 ([9]; human, in vivo, 300 mg) of the same compound?
The t1/2 was 8.6 h.

What about the CL/F ([9]; human, in vivo, 600 mg) of the same compound?
The CL/F was 56.9 L/h.

What about the Vd/F ([9]; human, in vivo, 600 mg) of the same compound?
The Vd/F was 1090 L.

What about the AUC(0-t) ([9]; human, in vivo, 800 mg) of the same compound?
Its AUC(0-t) is 18500 ng·h/mL.

What about the CL/F ([9]; human, in vivo, 800 mg) of the same compound?
The CL/F was 39.1 L/h.

What about the Cmax ([9]; human, in vivo, 800 mg) of the same compound?
The Cmax was 1880 ng/mL.

What about the Vd/F ([9]; human, in vivo, 800 mg) of the same compound?
The Vd/F was 596 L.

And the t1/2 ([9]; human, in vivo, 800 mg)?
The t1/2 was 10.5 h.

And the AUC0-24 h ([9]; human, in vivo, 1000 mg)?
Its AUC0-24 h is 20270 ng·h/mL.

What about the CL/F ([9]; human, in vivo, 1000 mg) of the same compound?
The CL/F was 44.9 L/h.

What about the Cmax ([9]; human, in vivo, 1000 mg) of the same compound?
The Cmax was 2098 ng/mL.

And the Vd/F ([9]; human, in vivo, 1000 mg)?
Its Vd/F is 704 L.

And the CL/F ([9]; human, in vivo, 1300 mg)?
Its CL/F is 38.6 L/h.

What about the Vd/F ([9]; human, in vivo, 1300 mg) of the same compound?
Its Vd/F is 625 L.

And the “doses at which Cmin exceeded that effective in preclinical models” value ([9]; monotherapy)?
Its value is at least 300 mg QD.

And the Cmin ([9]; monotherapy PK dose 160 mg (n = 1))?
The Cmin was 31.7 ng/mL.

What about the Cmin ([9]; monotherapy PK dose 300 mg (n = 1)) of the same compound?
Its Cmin is 41.2 ng/mL.

And the Cmin ([9]; monotherapy PK dose 600 mg (n = 4))?
The Cmin was 129 ng/mL.

What about the Cmin ([9]; monotherapy PK dose 800 mg (n = 38)) of the same compound?
Its Cmin is 234 ng/mL.

And the Cmin ([9]; monotherapy PK dose 1000 mg (n = 44-45))?
The Cmin was 289 ng/mL.

What about the Cmin ([9]; monotherapy PK dose 1300 mg (n = 3)) of the same compound?
The Cmin was 466 ng/mL.
